pIC50: −log10 of the molar value. Where two headings read alike, the source gives them in different places.
How the values were obtained:
[1] = test system: LNCaP cells; assay: MTT assay, PCNA-I1 and cisplatin alone or combined, LNCaP; type: cell-based, Human; conditions: Homo sapiens, LNCaP
Protocol: LNCaP or PC-3 cells were treated with a variety of concentrations of PCNA-I1 (0.1-10 μM) or cisplatin (0.1-10 μM) alone, or with a variety of concentrations of a combination of PCNA-I1 (0.1-10 μM) and cisplatin (0.1-10 μM) for four days. MTT assays were performed and IC50 values for PCNA-I1 and cisplatin were determined.

[2] = molecular target: T1, PCNA (Homo sapiens, UniProt P12004); assay: Association of PCNA with chromatin, PC-3 (NP-E/NP-R western blot); type: cell-based
T1 construct: endogenous PCNA was knocked down with transfection of PCNA-specific siRNA; endogenous in cells; host or cells: PC-3
T1 sequence (P12004 whole entry): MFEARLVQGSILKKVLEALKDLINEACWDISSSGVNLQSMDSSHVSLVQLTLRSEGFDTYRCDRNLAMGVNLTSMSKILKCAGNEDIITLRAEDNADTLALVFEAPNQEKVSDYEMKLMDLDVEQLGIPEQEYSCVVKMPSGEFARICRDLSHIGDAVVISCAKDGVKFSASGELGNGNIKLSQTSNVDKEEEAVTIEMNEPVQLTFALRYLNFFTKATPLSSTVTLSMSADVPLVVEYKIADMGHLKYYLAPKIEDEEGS
Protocol: The encircling of DNA and association with chromatin is required for PCNA to execute its function. Therefore, the effect of PCNA-I1 on the association of PCNA with chromatin was investigated. PC-3 cells were treated for various times with 0.5 μM of PCNA-I1 and lysed in buffer A (10 mM Tris-HCl, pH 7.4, 2.5 mM MgCl2, 0.5% NP-40, 1 mM DTT, 1 mM PMSF, and protease inhibitor cocktail). Samples were pelleted by centrifuge (1500×g, 2 min, 4° C.), and supernatant collected as NP-40-extractable ([…]) fraction. The pellet was washed in NP-40 buffer B (10 mM Tris-HCl, pH 7.4, 150 mM NaCl, 1 mM PMSF, and a protease inhibitor cocktail) to release the free form of PCNA. The cells were resuspended and digested in buffer C (10 mM Tris-HCl, pH 7.4, 10 mM NaCl, 5 mM MgCl2, 0.2 mM PMSF, and protease inhibitors) with 200 units/[…] of DNase I for 30 min at 37° C. After centrifugation at 13,000×g for 5 min at 4° C., the supernatant was collected and fractions were analyzed by western blotting. MCF-7, HeLa, and LNCaP cells were also subjected to treatment with 0.5 μM of PCNA-I1 and subjected to western blotting as previously discussed.

SMILES: Cc1ccsc1C(=O)N/N=C/c1ccc2ccccc2c1O [PCNA-I1]
- pIC50 ([1]; 96 h, MTT, four days, single agent, read-out: IC50 doses for cell growth inhibition, LNCaP, agent alone): 6.64
- pIC50 ([1]; combined with 0.3 μM cisplatin, read-out: PCNA-I1 concentration giving 50% inhibition in combination, LNCaP): 7.17
- PCNA in NP-E fraction (free-form PCNA), time course ([2]; PC-3, 0.5 μM, FIG. 10(A)): not significantly altered in cells treated by PCNA-I1 for up to 8 H but reduced in cells treated for 16 H
- PCNA in NP-R fraction (chromatin-associated PCNA), time course ([2]; PC-3, 0.5 μM, FIG. 10(A)): reduced in 1 to 2 H
- Chromatin-associated and free form PCNA, concentration dependence ([2]; PC-3, FIG. 10(B)): at concentration of 0.5 μM or lower mainly reduced the level of chromatin-associated PCNA and at concentration of 1 μM or higher led to a reduction of both the chromatin-associated and free form PCNA
